Consider 2 compounds from patent US4298739A, “Novel carbostyril derivatives” (priority 1977, dated 1981).

The subject of data set [1] is rabbit platelet. Put plainly: Collagen-induced aggregation in rabbit platelets (AG-II Aggregometer). The class given is cell-based. Details: inhibition: dose or concentration left out as unconfirmed. The conditions noted are these: Oryctolagus cuniculus, Platelet, read-out: Inhibition effect on collagen induced aggregation in rabbit platelet. Summed up: (§1)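 Rabbit citrated PRP, diluted with PPP to 300,000/mm^3 platelets for ADP or 450,000/mm^3 for collagen, was preincubated with compound 1 min at 37° C. before inducer was added. ADP at 7.5×10^-5 M or collagen supernatant in Auren Beronal buffer pH 7.35; transmittance change recorded, percent inhibition derived.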

Data set [2] concerns rabbit platelet. Put plainly: ADP-induced aggregation in rabbit platelets (AG-II Aggregometer). In kind it is cell-based. Details: inhibition: dose or concentration left out as unconfirmed. Conditions: Oryctolagus cuniculus, Platelet, read-out: Inhibition effect on ADP-induced aggregation in rabbit platelet. An outline of the steps:
as §1

Data set [3] in a line: Concentration in blood of male Wister rats. The class given is in vivo. The conditions noted are these: 30 mg/kg water suspension, 30 mg/kg; for Concentration in blood: Rat. How it is done: (§2) A water suspension of test compound was administered at the dose of 30 mg/kg to the overnight fasted male Wister rats and male beagle dogs, and after a predetermined period of time, blood was collected from said animals to obtain plasma. 2 to 3 Milliliters of 0.1 N-NaOH and 2 ml of CHCl3 were added to 1 ml of the obtained plasma, and the mixture was shaken and extracted in a shaker for 2 hours, and after centrifugal separation, the organic layer was washed with 2 ml of 0.1 N-HCl. This organic layer was then subjected to a freezing and thawing treatment, and after evaporating chloroform under nitrogen stream, the residue was redissolved in 100 μl of chloroform and spotted on a thin layer plate of "Silica Gel 60 F254 " manufactured by Merck & Co., Inc. This was developed in a chloroform: butanol mixed solvent (5:1) and determined by measuring the spots with same Rf value as the test compound according to the absorbance method by using Shimazu CS-910 Thin Layer Chromato-scanner,and therefrom the concentration (μg/ml) of test compound A in blood was determined.

Data set [4] is described as follows: Concentration in blood of male beagle dogs. Conditions: 30 mg/kg water suspension, 30 mg/kg; for Concentration in blood: Beagle dog. The class given is in vivo. How it is done:
as §2

A short description of data set [5]: Acute toxicity test, oral administration to mice. The class given is in vivo. The conditions noted are these: mouse, in vivo, Male mice. How it is done:
The test compounds were administered orally to the mice and LD50 (mg/kg) of the compounds was determined.

Several values for one entry are separate records, joined by “and”; a condition that tells them apart may be missing. Equal values may be shown once.

What is called inhibition is how much of the control response was suppressed. One may read the LD50 as the dose expected to kill half of the subjects tested. As for `CN(C(=O)CCCOc1ccc2[nH]c(=O)ccc2c1)C1CCCCC1` [compound 16, 6-[3-(N-Methyl-N-cyclohexylaminocarbonyl)propoxy]carbostyril], the values for the inhibition in the data set on rabbit platelet [1] and in the data set with rabbit platelet [2] were 90.5% and 91.7%, respectively. For the same compound, the Concentration in blood in data set [3] (1 hr., 60 min) was 1060 ng/mL and 880 ng/mL; in data set [3] (4 hr., 240 min), 710 ng/mL and 830 ng/mL; in data set [3] (12 hr., 720 min) it was 730 ng/mL and 780 ng/mL; in data set [4] (1 hr., 60 min), 130 ng/mL; in data set [4] (2 hr., 120 min) it was 310 ng/mL; in data set [4] (6 hr., 360 min) it was 210 ng/mL. The compound also had a Concentration in blood in data set [4] (12 hr., 720 min) of 70 ng/mL. Further, the concentration at 1 h came to 900 ng/mL in data set [3] (rat, plasma, 1 hr.) and 230 ng/mL in data set [4] (dog, plasma, 1 hr.). In addition, in data set [3] (rat, plasma, 4 hr.), the concentration at 4 h amounted to 1100 ng/mL. For the same compound, the concentration at 12 h in data set [3] (rat, plasma, 12 hr.) is 640 ng/mL; in data set [4] (dog, plasma, 12 hr.), 40 ng/mL. The concentration at 2 h in data set [4] (dog, plasma, 2 hr.) worked out at 280 ng/mL. Also, the concentration at 6 h in data set [4] (dog, plasma, 6 hr.) was 110 ng/mL. In addition, in data set [5], the LD50 is > 1000 mg/kg.

`CC(=O)OC1CCC(N(C)C(=O)CCCOc2ccc3[nH]c(=O)ccc3c2)CC1` (stereo not drawn) [compound 3, 6-{3-[N-Methyl-N-(4-acetyloxycyclohexyl)aminocarbonyl]propoxy}carbostyril]: the inhibition at 100 µM (stock) was found to be 90.8% in the data set on rabbit platelet [1] (10^-4 mole) and 91.5% in the data set with rabbit platelet [2] (10^-4 mole). In addition, the inhibition at 10 µM (stock) was 84.8% in the data set on rabbit platelet [1] (10^-5 mole) and 75% with rabbit platelet [2] (10^-5 mole). Besides, the inhibition at 1 µM (stock) in the data set on rabbit platelet [1] (10^-6 mole) turned out to be 61.9%; in the data set on rabbit platelet [2] (10^-6 mole), 20.8%. In addition, the LD50 in data set [5] was > 1000 mg/kg.
